Broadly, the IC50 is the concentration needed to halve the response being measured. Read a high IC50 as weaker potency in that assay.

Results on five compounds are retold here after patent publication US8883438B2, “Method for diagnosing cell proliferation disorders having a neoactive mutation at residue 97 of isocitrate dehydrogenase 1” (Agios Pharmaceuticals, Inc., priority 2009, dated 2014).

The target in series [1] is T1, IDH1 G97D (Homo sapiens, UniProt O75874, G97D).
T1 construct: Oligo nucleotides were designed to PCR out the coding region of IDH1 with NdeI at the 5′ end and XhoI at the 3′; Ser-Leu-Glu junction (stop codon changed to Ser, then Leu-Glu); made in house; host or cells: E. coli Rosetta
T1 sequence (O75874 whole entry G97D): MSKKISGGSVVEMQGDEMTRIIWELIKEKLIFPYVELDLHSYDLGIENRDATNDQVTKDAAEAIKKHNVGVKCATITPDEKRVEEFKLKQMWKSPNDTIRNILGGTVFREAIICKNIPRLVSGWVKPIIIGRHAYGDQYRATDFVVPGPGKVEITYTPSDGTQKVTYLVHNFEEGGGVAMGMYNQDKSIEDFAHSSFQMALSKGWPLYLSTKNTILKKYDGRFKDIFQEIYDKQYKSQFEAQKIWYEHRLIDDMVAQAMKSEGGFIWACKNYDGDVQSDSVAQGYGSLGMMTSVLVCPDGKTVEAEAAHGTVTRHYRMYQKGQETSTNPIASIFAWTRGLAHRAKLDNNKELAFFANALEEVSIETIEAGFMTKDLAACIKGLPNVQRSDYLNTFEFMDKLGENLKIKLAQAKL
Kind of series: IDH1 G97D inhibition assay (NADPH/aKG, diaphorase/resazurin fluorescence readout). Conditions: 50 minutes at room temperature. It counts as biochemical. The method, then: Assays were conducted in a standard 384-well plate in a reaction volume of 76 uL assay buffer (150 mM NaCl, 10 mM MgCl2, 20 mM Tris pH 7.5, 0.05% bovine serum albumin, 2 mM beta-mercaptoethanol) as follows: To 25 uL of substrate mix (4 uM NADPH, 1 mM aKG), 1 uL of test compound in DMSO was added. The plate was centrifuged briefly, and then 25 ul of enzyme mix was added (0.1 ug/mL ICDH1 G97D) followed by a brief centrifugation and shake at 100 RPM. The reaction was incubated for 50 minutes at room temperature, then 25 ul of detection mix (30 uM resazurin, 36 ug/ml diaphorase) was added, and the mixture further incubated for 5 minutes at room temperature. The activity readout as a result of the conversion of resazurin to resorufin was detected by fluorescent spectroscopy at excitation 544 nm and emission 590 nm (c/o 590 nm).

In series [2] the test system is glioblastoma multiforme. The settings on record: persons newly diagnosed with glioblastoma multiforme; cited from earlier work.

With `CCCCC1=NN2C(=N)/C(=C/c3ccc(-c4ccc([NH2+][O-])cc4Cl)o3)C(=O)N=C2S1`, in series [1], the concentration for half-maximal inhibition (IC50) is 1 to 5 µM.

In turn, `O=C1NC(=S)S/C1=C\c1ccc(-c2ccc(N3CCOCC3)c([N+](=O)[O-])c2)o1` gave an IC50 in series [1] of 5 to 10 µM.

Turning to `N#C/C(=C\c1ccc(-c2cc([N+](=O)[O-])ccc2O)o1)c1nc2ccccc2[nH]1`, the IC50 in series [1] lay in the range of 1 to 5 µM.

As to `O=C1/C(=C/c2ccc(F)cc2)C(CSc2ccc(Cl)cc2)=NN1c1nc2ccccc2s1`, the IC50 in series [1] is 1 to 5 µM.

With `Cn1nnc2c(C(N)=O)ncn2c1=O` [temozolomide, Temozolomide], the tolerability entry in series [2] is listed as “well tolerated”.
